Test results published in US7138361B2, “Herbicidal heterocycles” (E. I. du Pont de Nemours and Company, priority 2000, dated 2006).

Key:
Assay type in all cases: in vivo
[1] = test system: Surinam grass (Brachiaria decumbens); experiment: Test B postemergence; details: 13 to 15 days
Summary of the method: (§1)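 Greenhouse test: chemicals are formulated in a surfactant-containing non-phytotoxic solvent and applied either preemergence to planted seeds or postemergence to plants 2 to 18 cm tall. Response is rated visually versus controls after 13 to 15 days, 0 meaning no effect and 100 complete control.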

[2] = test system: barnyardgrass (Echinochloa crus-galli); experiment: Test B postemergence; details: 13 to 15 days
Summary of the method: as §1

[3] = test system: blackgrass (Alopecurus myosuroides); experiment: Test B postemergence; details: 13 to 15 days
Summary of the method: as §1

[4] = test system: cocklebur (Xanthium strumarium); experiment: Test B postemergence; details: 13 to 15 days
Summary of the method: as §1

corn (Zea mays) [5] = experiment: Test B postemergence; details: 13 to 15 days
Summary of the method: as §1

[6] = test system: crabgrass (Digitaria sanguinalis); experiment: Test B postemergence; details: 13 to 15 days
Summary of the method: as §1

[7] = test system: giant foxtail (Setaria faberii); experiment: Test B postemergence; details: 13 to 15 days
Summary of the method: as §1

[8] = test system: lambsquarters (Chenopodium album); experiment: Test B postemergence; details: 13 to 15 days
Summary of the method: as §1

[9] = test system: morning glory (Ipomoea hederacea); experiment: Test B postemergence; details: 13 to 15 days
Summary of the method: as §1

[10] = test system: pigweed (Amaranthus retroflexus); experiment: Test B postemergence; details: 13 to 15 days
Summary of the method: as §1

[11] = test system: velvetleaf (Abutilon theophrasti); experiment: Test B postemergence; details: 13 to 15 days
Summary of the method: as §1

[12] = test system: wheat (Triticum aestivum); experiment: Test B postemergence; details: 13 to 15 days
Summary of the method: as §1

wild oat (Avena fatua) = experiment: Test B postemergence; details: 13 to 15 days
Summary of the method: as §1

[13] = test system: Surinam grass (Brachiaria decumbens); experiment: Test B preemergence; details: scale 0 to 100, 0 no effect, 100 complete control
Summary of the method: as §1

[14] = test system: barnyardgrass (Echinochloa crus-galli); experiment: Test B preemergence; details: scale 0 to 100, 0 no effect, 100 complete control
Summary of the method: as §1

[15] = test system: cocklebur (Xanthium strumarium); experiment: Test B preemergence; details: scale 0 to 100, 0 no effect, 100 complete control
Summary of the method: as §1

corn (Zea mays) [16] = experiment: Test B preemergence; details: scale 0 to 100, 0 no effect, 100 complete control
Summary of the method: as §1

[17] = test system: crabgrass (Digitaria sanguinalis); experiment: Test B preemergence; details: scale 0 to 100, 0 no effect, 100 complete control
Summary of the method: as §1

[18] = test system: giant foxtail (Setaria faberii); experiment: Test B preemergence; details: scale 0 to 100, 0 no effect, 100 complete control
Summary of the method: as §1

[19] = test system: lambsquarters (Chenopodium album); experiment: Test B preemergence; details: scale 0 to 100, 0 no effect, 100 complete control
Summary of the method: as §1

[20] = test system: morning glory (Ipomoea hederacea); experiment: Test B preemergence; details: scale 0 to 100, 0 no effect, 100 complete control
Summary of the method: as §1

[21] = test system: pigweed (Amaranthus retroflexus); experiment: Test B preemergence; details: scale 0 to 100, 0 no effect, 100 complete control
Summary of the method: as §1

rice (Oryza saliva) [22] = experiment: Test B preemergence; details: scale 0 to 100, 0 no effect, 100 complete control
Summary of the method: as §1

[23] = test system: velvetleaf (Abutilon theophrasti); experiment: Test B preemergence; details: Preemergence, Rate 500 g/ha; scale 0 to 100, 0 no effect, 100 complete control
Summary of the method: as §1

[24] = test system: barnyardgrass (Echinochloa crus-galli); experiment: Test B flooded paddy test; details: Rate 1000 g/ha, scale of 0 to 100 where 0 is no effect and 100 is complete control, visually evaluated after 13 to 15 days
Method: (§2) At the same time, plants selected from these crop and weed species and also blackgrass (Alopecurus myosuroides), wheat (Triticum aestivum) and wild oat (Avena fatua) were treated with postemergence applications of test chemicals formulated in the same manner. Plants ranged in height from 2 to 18 cm (1- to 4-leaf stage) for postemergence treatments. Plant species in the flooded paddy test consisted of rice (Oryza saliva), smallflower flatsedge (Cyperus difformis), duck salad (Heteranthera limosa) and barnyardgrass (Echinochloa crus-galli) grown to the 2-leaf stage for testing. Treated plants and controls were maintained in a greenhouse for 13 to 15 days, after which time all species were compared to controls and visually evaluated. Plant response ratings, summarized in Table B, are based on a scale of 0 to 100 where 0 is no effect and 100 is complete control. A dash (-) response means no test result.

[25] = test system: duck salad (Heteranthera limosa); experiment: Test B flooded paddy test; details: Rate 1000 g/ha, scale of 0 to 100 where 0 is no effect and 100 is complete control, visually evaluated after 13 to 15 days
Method: as §2

rice (Oryza saliva) [26] = experiment: Test B flooded paddy test; details: Rate 1000 g/ha, scale of 0 to 100 where 0 is no effect and 100 is complete control, visually evaluated after 13 to 15 days
Method: as §2

[27] = test system: smallflower flatsedge (Cyperus difformis); experiment: Test B flooded paddy test; details: Rate 1000 g/ha, scale of 0 to 100 where 0 is no effect and 100 is complete control, visually evaluated after 13 to 15 days
Method: as §2

[28] = Rate 125 g/ha, scale 0 (no effect) to 100 (complete control)
[29] = Rate 500 g/ha, scale 0 to 100, 0 is no effect, 100 is complete control

Cc1ccc(N2CCC(n3ccc(C(C)(C)C)n3)C2=O)cc1Br (stereo not shown) [Compound 35]
Plant response rating, Surinam grass [1, 28]: 0
Plant response rating, Surinam grass [1, 29]: 0
Plant response rating, Barnyardgrass [2, 28]: 0
Plant response rating, Barnyardgrass [2, 29]: 40
Plant response rating, Blackgrass [3, 28]: 0
Plant response rating, Blackgrass [3, 29]: 0
Plant response rating, Cocklebur [4, 28]: 40
Plant response rating, Cocklebur [4, 29]: 40
Plant response rating, Corn (corn (Zea mays) [5]; [28]): 0
Plant response rating, Corn (corn (Zea mays) [5]; [29]): 0
Plant response rating, Crabgrass [6, 28]: 0
Plant response rating, Crabgrass [6, 29]: 0
Plant response rating, Foxtail, Giant [7, 28]: 0
Plant response rating, Foxtail, Giant [7, 29]: 0
Plant response rating, Lambsquarters [8, 28]: 0
Plant response rating, Lambsquarters [8, 29]: 80
Plant response rating, Morningglory [9, 28]: 0
Plant response rating, Morningglory [9, 29]: 20
Plant response rating, Pigweed [10, 28]: 90
Plant response rating, Pigweed [10, 29]: 90
Plant response rating, Velvetleaf [11, 28]: 0
Plant response rating, Velvetleaf [11, 29]: 0
Plant response rating, Wheat [12, 28]: 0
Plant response rating, Wheat [12, 29]: 0
Plant response rating, Wild Oat (wild oat (Avena fatua); [28]): 0
Plant response rating, Wild Oat (wild oat (Avena fatua); [29]): 0
Plant response rating, Surinam grass ([13]; Preemergence, Rate 500 g/ha): 0
Plant response rating, Surinam grass ([13]; preemergence, Rate 125 g/ha): 0
Plant response rating, Barnyardgrass ([14]; Preemergence, Rate 500 g/ha): 60
Plant response rating, Barnyardgrass ([14]; preemergence, Rate 125 g/ha): 0
Plant response rating, Cocklebur ([15]; Preemergence, Rate 500 g/ha): 0
Plant response rating, Cocklebur ([15]; preemergence, Rate 125 g/ha): 0
Plant response rating, Corn (corn (Zea mays) [16]; Preemergence, Rate 500 g/ha): 0
Plant response rating, Corn (corn (Zea mays) [16]; preemergence, Rate 125 g/ha): 0
Plant response rating, Crabgrass ([17]; Preemergence, Rate 500 g/ha): 100
Plant response rating, Crabgrass ([17]; preemergence, Rate 125 g/ha): 0
Plant response rating, Foxtail, Giant ([18]; Preemergence, Rate 500 g/ha): 0
Plant response rating, Foxtail, Giant ([18]; preemergence, Rate 125 g/ha): 0
Plant response rating, Lambsquarters ([19]; Preemergence, Rate 500 g/ha): 100
Plant response rating, Lambsquarters ([19]; preemergence, Rate 125 g/ha): 0
Plant response rating, Morningglory ([20]; Preemergence, Rate 500 g/ha): 0
Plant response rating, Pigweed ([21]; Preemergence, Rate 500 g/ha): 100
Plant response rating, Rice (rice (Oryza saliva) [22]; Preemergence, Rate 500 g/ha): 0
Plant response rating, Velvetleaf [23]: 0
Plant response rating, Barnyardgrass [24]: 60
Plant response rating, Ducksalad [25]: 0
Plant response rating, Rice (rice (Oryza saliva) [26]): 0
Plant response rating, Flatsedge [27]: 100

O=C1C(n2cccn2)SCN1c1cccc(C(F)(F)F)c1 (stereo not shown) [Compound 18]
Plant response rating, Surinam grass [1, 28]: 0
Plant response rating, Surinam grass [1, 29]: 0
Plant response rating, Barnyardgrass [2, 28]: 0
Plant response rating, Barnyardgrass [2, 29]: 0
Plant response rating, Blackgrass [3, 28]: 0
Plant response rating, Blackgrass [3, 29]: 0
Plant response rating, Cocklebur [4, 28]: 0
Plant response rating, Cocklebur [4, 29]: 20
Plant response rating, Corn (corn (Zea mays) [5]; [28]): 0
Plant response rating, Corn (corn (Zea mays) [5]; [29]): 0
Plant response rating, Crabgrass [6, 28]: 0
Plant response rating, Crabgrass [6, 29]: 0
Plant response rating, Foxtail, Giant [7, 28]: 0
Plant response rating, Foxtail, Giant [7, 29]: 0
Plant response rating, Lambsquarters [8, 28]: 60
Plant response rating, Lambsquarters [8, 29]: 70
Plant response rating, Morningglory [9, 28]: 10
Plant response rating, Morningglory [9, 29]: 10
Plant response rating, Pigweed [10, 28]: 0
Plant response rating, Pigweed [10, 29]: 0
Plant response rating, Velvetleaf [11, 28]: 0
Plant response rating, Velvetleaf [11, 29]: 20
Plant response rating, Wheat [12, 28]: 0
Plant response rating, Wheat [12, 29]: 0
Plant response rating, Wild Oat (wild oat (Avena fatua); [28]): 0
Plant response rating, Wild Oat (wild oat (Avena fatua); [29]): 0
Plant response rating, Surinam grass ([13]; Preemergence, Rate 500 g/ha): 0
Plant response rating, Surinam grass ([13]; preemergence, Rate 125 g/ha): 0
Plant response rating, Barnyardgrass ([14]; Preemergence, Rate 500 g/ha): 0
Plant response rating, Barnyardgrass ([14]; preemergence, Rate 125 g/ha): 0
Plant response rating, Cocklebur ([15]; Preemergence, Rate 500 g/ha): 0
Plant response rating, Cocklebur ([15]; preemergence, Rate 125 g/ha): 0
Plant response rating, Corn (corn (Zea mays) [16]; Preemergence, Rate 500 g/ha): 0
Plant response rating, Corn (corn (Zea mays) [16]; preemergence, Rate 125 g/ha): 0
Plant response rating, Crabgrass ([17]; Preemergence, Rate 500 g/ha): 0
Plant response rating, Crabgrass ([17]; preemergence, Rate 125 g/ha): 0
Plant response rating, Foxtail, Giant ([18]; Preemergence, Rate 500 g/ha): 0
Plant response rating, Foxtail, Giant ([18]; preemergence, Rate 125 g/ha): 0
Plant response rating, Lambsquarters ([19]; preemergence, Rate 125 g/ha): 0
Plant response rating, Morningglory ([20]; Preemergence, Rate 500 g/ha): 0
Plant response rating, Morningglory ([20]; preemergence, Rate 125 g/ha): 0
Plant response rating, Pigweed ([21]; Preemergence, Rate 500 g/ha): 0
Plant response rating, Pigweed ([21]; preemergence, Rate 125 g/ha): 0
Plant response rating, Rice (rice (Oryza saliva) [22]; Preemergence, Rate 500 g/ha): 0
Plant response rating, Rice (rice (Oryza saliva) [22]; preemergence, Rate 125 g/ha): 0
Plant response rating, Barnyardgrass [24]: 0
Plant response rating, Ducksalad [25]: 0
Plant response rating, Rice (rice (Oryza saliva) [26]): 0
Plant response rating, Flatsedge [27]: 0
